According to article PMC5052702 (Nature Communications, 2016):

Biological target: T1, CVB3 3C protease (Coxsackievirus B3, UniProt P03313)
T1 construct: 3C protease of Coxsackie virus B3 consisting of 183 amino-acid residues; made in house; host or cells: E. coli BL21(DE3), plasmid pET-23a(+)
Experiment: FRET-based enzyme activity assay (warhead activation / inhibitor kinetics)
Format: biochemical, Coxsackie virus B3
Details: for kinact/KI: relative inactivation rate, slope of kobs against inhibitor concentration, read-out: kinact/KI
Method: The activity of the protease was measured by hydrolysis of the FRET-substrate N-Dabcyl-KTLEALFQ↓GPPVYE(Edans)-NH2. The peptide was purchased from Biosyntan (Berlin, Germany). Samples were irradiated with light with a wavelength of 355 nm and the emitted light at 538 nm was measured in relative fluorescence units (RFUs). An amount of 100 pmol of cleaved substrate equals 5,000 RFU.
Assay samples contained 10 μl of a 100 mM HEPES-NaOH buffer solution pH 7.5/1 mM EDTA, 10 μl enzyme solution (2 μM CVB3 3C^Pro), 10 μl of 10 μM substrate solution (both dissolved in the above buffer) and 1 μl Inhibitor and/or fragment dissolved in DMSO. For assay results of a dilution series of a mixture of 1 and 2 and comparison of reaction products in dependence of the assay solvent, see Supplementary Figs 1 and 2.
The screening procedure consisted of the following steps: 10 μl 100 mM HEPES-NaOH buffer solution pH 7.5/1 mM EDTA was placed in a cavity of the 384-well plate (polystyrene, Corning 3544). Then 10 μl of enzyme solution (40 μM CVB3 3C protease in 100 mM HEPES-NaOH buffer solution, pH 7.5/1 mM EDTA) was added and the plate was shaken for 2 min at 1,400 r.p.m. Afterwards, 0.5 μl of a DMSO solution of the electrophilic probe and 0.5 μl of a DMSO solution of the nucleophile was added, followed by 10 μl of substrate solution (10 μM in 100 mM HEPES-NaOH buffer solution, pH 7.5/1 mM EDTA). The plate was shaken again for 2 min at 1,400 r.p.m. and the generated fluorescence signal was measured with a Safire II Fluorimeter from Tecan. The electrophilic probe 1 was used at a concentration of 400 μM for the screening, which lowered the protease activity by 10–20%. Eight-hundred fifty primary amines were tested at a concentration of 320 μM and fragment 2 amplified the inhibitory activity of 1 most potently. Positive control samples contained only DMSO instead of the probe or the nucleophile. Negative control samples contained no active enzyme. An interfering fluorescent effect has not been observed.
When determining the inhibitory parameters of an inhibitor, the assay set-up was as mentioned but 1 μl DMSO solution of inhibitor was used instead of probe or nucleophile. Different concentrations of inhibitor were tested at least as duplicates and the pseudo-first-order association kinetics (kobs) were determined using GraphPad Prism. The slope of a plot of the different kobs values against the inhibitor concentration yielded kinact/KI.

T1 sequence (P03313 1541-1723): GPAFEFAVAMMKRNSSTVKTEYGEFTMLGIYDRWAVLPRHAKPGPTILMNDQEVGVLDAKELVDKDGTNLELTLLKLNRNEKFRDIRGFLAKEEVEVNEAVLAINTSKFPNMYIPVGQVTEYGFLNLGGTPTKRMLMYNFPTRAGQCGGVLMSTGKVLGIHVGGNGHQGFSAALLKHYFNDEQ

Structure (SMILES) | inhibition of the protease, in words | kinact/KI [M⁻¹ s⁻¹] | IC50 (read-out: IC50) [µM]
CCOC(=O)/C=C/C(=O)Nc1cc(=O)[nH]n1C1CCCCCC1 [Compound 9] | inactive | – | –
CCNC(=O)/C=C\C(=O)NCC [Compound 15] | fully inactive | – | –
CCOC(=O)/C=C\C(=O)Nc1cc(=O)[nH][nH]1 [Compound 18] | – | 11.7 ± 0.5 | –
CCOC(=O)[C@H]1O[C@H]1C(=O)Nc1cc(=O)[nH]n1C1CCCCCC1 [Compound 5] | inactive | – | –
O=C(NCc1cccc2ccccc12)[C@H]1O[C@@H]1C(=O)Nc1cc(=O)[nH]n1C1CCCCCC1 [Compound 6] | inactive | – | –
CCCC(CCC)n1[nH]c(=O)cc1NC(=O)/C=C\C(=O)OCC [Compound 17] | – | 217 ± 30.7 | –
CC(C)n1[nH]c(=O)cc1NC(=O)/C=C/S(=O)(=O)c1ccccc1 [Compound 21] | – | 542 ± 6.3 | –
CCOC(=O)/C=C/C(=O)c1c(N)n(-c2ccccc2)[nH]c1=O [Compound 10] | – | 14.7 ± 0.9 | –
CCOC(=O)[C@H]1O[C@@H]1C(=O)Nc1cc(=O)[nH]n1C1CCCCCC1 [Compound 4] | reversible inhibitor | – | 142 ± 5.6
